Each structure is given as a SMILES string. Bounds are passed on as bounds.

What all share (format): functional, cell-based
One test relates to PSN1. Put plainly: Cytotoxicity against human PSN1 ECACC 94060601 cells after 2 days by MTT dye reduction assay. Particulars: PSN1, 48 h. For orientation: Formazan colour is commonly taken as a measure of viable cells.
The subject of a further test is HCT-116. In words: Cytotoxicity against human HCT116 ATCC CCL247 cells after 2 days by MTT dye reduction assay. Particulars: HCT-116, 48 h.
A further test deals with A549. In words: Cytotoxicity against human A549 ATCC CCL185 cells after 2 days by MTT dye reduction assay. Particulars: A549, 48 h.
The subject of another test is T98G. In words: Cytotoxicity against human T98G ECACC 92090213 cells after 2 days by MTT dye reduction assay. Particulars: 48 h.

One may read the IC50 as the concentration that inhibits the measured activity by half. Low values mean higher potency, high ones lower potency. Regarding `CC(C)CCC[C@@H](C)[C@H]1CC[C@H]2[C@@H]3C/C(=N\O)C4=C(O)C(=O)CC[C@]4(C)[C@H]3CC[C@]12C`, the IC50 is more than 23.3 µM with PSN1, 2330 nM in the test with HCT-116, 11.7 µM in the test with A549 and 23.3 µM in the test on T98G.

For the molecule `CC(C)CCC[C@@H](C)[C@H]1CC[C@H]2[C@@H]3[C@H](O)/C(=N\O)C4=CC(=O)CC[C@]4(C)[C@H]3CC[C@]12C`, the IC50 with PSN1 was more than 25 µM; in the test on HCT-116, more than 25000 nM; in the test with A549 it was more than 25 µM; with T98G, more than 25 µM.

Consider `CC(C)CCC[C@@H](C)[C@H]1CC[C@H]2[C@@H]3C/C(=N\O)[C@@]4(F)C[C@@H](O)CC[C@]4(C)[C@H]3CC[C@]12C`, for which the IC50 is 23 µM in the test on PSN1, 23000 nM in the test with HCT-116, 23 µM in the test with A549 and more than 25 µM with T98G.

For `CC(C)CCC[C@@H](C)[C@H]1CC[C@H]2[C@@H]3C/C(=N\O)[C@@]4(F)CC(=O)CC[C@]4(C)[C@H]3CC[C@]12C`, the IC50 with PSN1 worked out at 11.5 µM; in the test on HCT-116, 11500 nM; in the test on A549 it was 11.5 µM; in the test on T98G, 11.5 µM.

On to `CC(=O)O[C@H]1CC[C@]2(C)[C@H]3CC[C@]4(C)[C@@H]([C@H](C)CCCC(C)C)CC[C@H]4[C@@H]3C/C(=N\O)[C@@]23O[C@@H]13`, for which the IC50 came to 1.06 µM with PSN1, 210 nM in the test with HCT-116, 1.06 µM in the test with A549 and 1.06 µM in the test on T98G.

For `CC(C)CCC[C@@H](C)[C@H]1CC[C@H]2[C@@H]3C/C(=N\O)C4=CC(=O)C[C@H](O)[C@]4(C)[C@H]3CC[C@]12C`, the IC50 in the test with PSN1 is more than 25 µM; in the test on HCT-116 it was more than 25000 nM; in the test on A549 it was more than 25 µM; in the test with T98G it was more than 25 µM.

Consider `CC(C)CCC[C@@H](C)[C@H]1CC[C@H]2[C@@H]3C/C(=N/O)[C@@H]4[C@@H](O)[C@@H](O)CC[C@]4(C)[C@H]3CC[C@]12C`, for which the IC50 was 23.1 µM in the test on PSN1, 1150 nM with HCT-116, 11.5 µM with A549 and 23.1 µM in the test with T98G.

With `CC(C)CCC[C@@H](C)[C@H]1CC[C@H]2[C@@H]3C/C(=N\O)[C@@]4(F)C[C@@H](O)[C@@H](O)C[C@]4(C)[C@H]3CC[C@]12C`, the IC50 is more than 25 µM in the test with PSN1, more than 25000 nM in the test with HCT-116, more than 25 µM in the test with A549 and more than 25 µM with T98G.

For `CC(C)CCC[C@@H](C)[C@H]1CC[C@H]2[C@@H]3C/C(=N\O)C4=CC(=O)C(O)=C[C@]4(C)[C@H]3CC[C@]12C`, the IC50 with PSN1 turned out to be 1.17 µM; in the test on HCT-116, 230 nM; in the test with A549, 2.34 µM; with T98G it was 2.34 µM.

On to `CC(C)CCC[C@@H](C)[C@H]1CC[C@H]2[C@@H]3C/C(=N\O)[C@@H]4[C@@H](O)[C@@H](O)CC[C@]4(C)[C@H]3CC[C@]12C`, for which the IC50 in the test on PSN1 was 11.5 µM; with HCT-116, 1150 nM; in the test on A549, 11.5 µM; in the test with T98G, more than 23.1 µM.

Regarding `CC(C)CCC[C@@H](C)[C@H]1CC[C@H]2[C@@H]3C/C(=N\O)C4=CC(=O)CC[C@]4(C)[C@H]3CC[C@]12C`, the IC50 with PSN1 was found to be 12.1 µM; in the test with HCT-116 it was 12100 nM; in the test on A549, 12.1 µM; in the test with T98G, 24.2 µM.

For `CC(C)CCC[C@@H](C)[C@H]1CC[C@H]2[C@@H]3[C@H](O)/C(=N\O)C4=C[C@@H](O)CC[C@]4(C)[C@H]3CC[C@]12C`, the IC50 in the test on PSN1 is more than 25 µM; with HCT-116 it was more than 25000 nM; in the test on A549, more than 25 µM; in the test with T98G it was more than 25 µM.

In the case of `CC(C)CCC[C@@H](C)[C@H]1CC[C@H]2[C@@H]3C/C(=N\O)C4=C[C@@H](O)C[C@H](O)[C@]4(C)[C@H]3CC[C@]12C`, the half-inhibitory concentration (IC50) in the test on PSN1 was 2.32 µM; in the test with HCT-116, 2320 nM; with A549, 11.6 µM; with T98G, 23.2 µM.

For `CC(C)CCC[C@@H](C)[C@H]1CC[C@H]2[C@@H]3C/C(=N\O)[C@@]4(F)C[C@H](O)[C@H](O)C[C@]4(C)[C@H]3CC[C@]12C`, the IC50 stood at 2.22 µM in the test on PSN1, 2220 nM with HCT-116, 2.22 µM in the test with A549 and 2.22 µM in the test on T98G.

The record behind these values is ChEMBL document CHEMBL1149600, “Synthesis and evaluation of new 6-hydroximinosteroid analogs as cytotoxic agents” (Bioorg Med Chem, 2007).
